Molecular target: T1, ERK5 (Homo sapiens, UniProt Q13164)
T1 construct: gene MAPK7; endogenous ERK5 immunoprecipitated from EGF-treated MDA-MB231 cells
Test: in vitro autophosphorylation kinase assay on immunoprecipitated active ERK5, Western blot mobility-shift readout
Assay type: biochemical

T1 sequence (Q13164 2-816): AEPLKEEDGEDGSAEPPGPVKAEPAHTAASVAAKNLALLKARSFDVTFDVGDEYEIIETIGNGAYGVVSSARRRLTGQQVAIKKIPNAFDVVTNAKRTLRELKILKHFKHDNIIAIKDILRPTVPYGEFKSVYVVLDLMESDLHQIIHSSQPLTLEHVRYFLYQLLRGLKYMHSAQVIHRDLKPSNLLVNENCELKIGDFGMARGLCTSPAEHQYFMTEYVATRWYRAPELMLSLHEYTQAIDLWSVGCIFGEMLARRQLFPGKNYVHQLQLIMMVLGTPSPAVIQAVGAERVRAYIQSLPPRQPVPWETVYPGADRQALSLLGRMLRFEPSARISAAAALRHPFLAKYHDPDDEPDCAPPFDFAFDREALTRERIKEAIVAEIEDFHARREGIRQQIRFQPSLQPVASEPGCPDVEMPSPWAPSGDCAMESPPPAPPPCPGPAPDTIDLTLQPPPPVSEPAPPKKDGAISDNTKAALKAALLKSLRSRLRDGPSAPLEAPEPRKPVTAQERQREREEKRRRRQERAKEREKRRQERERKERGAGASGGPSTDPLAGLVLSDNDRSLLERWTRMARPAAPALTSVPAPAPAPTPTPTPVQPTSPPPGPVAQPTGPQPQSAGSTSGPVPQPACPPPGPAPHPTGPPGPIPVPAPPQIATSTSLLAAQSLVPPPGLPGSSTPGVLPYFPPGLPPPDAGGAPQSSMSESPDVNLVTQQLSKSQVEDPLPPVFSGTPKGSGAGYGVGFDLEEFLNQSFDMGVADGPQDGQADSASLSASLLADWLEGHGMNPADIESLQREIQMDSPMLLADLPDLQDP

SMILES: CN1C/C=C/CCOc2cccc(c2)-c2ccnc(n2)Nc2cccc(c2)C1 [TG02]
- IC50: 100 nM

From article PMC4294347, “Therapeutic potential of ERK5 targeting in triple negative breast cancer” (Oncotarget, 2014)
